One block for each molecule: values may come before it.
What was measured:
[1] = Bioavailability in rat (dose 20 mg/kg p.o. in 1% methocel, and 5 mg/kg i.v. in PEG400); assay type: ADME, organism-based; conditions: in vivo, po
[2] = Peak concentration in rat plasma was determined; assay type: ADME, organism-based
[3] = biological target: T1, Polyunsaturated fatty acid 5-lipoxygenase (Rattus norvegicus, UniProt P12527); test: In vitro test for inhibition of 5-lipoxygenase in cell-free preparations from rat PMN leukocytes
T1 sequence (P12527 whole entry): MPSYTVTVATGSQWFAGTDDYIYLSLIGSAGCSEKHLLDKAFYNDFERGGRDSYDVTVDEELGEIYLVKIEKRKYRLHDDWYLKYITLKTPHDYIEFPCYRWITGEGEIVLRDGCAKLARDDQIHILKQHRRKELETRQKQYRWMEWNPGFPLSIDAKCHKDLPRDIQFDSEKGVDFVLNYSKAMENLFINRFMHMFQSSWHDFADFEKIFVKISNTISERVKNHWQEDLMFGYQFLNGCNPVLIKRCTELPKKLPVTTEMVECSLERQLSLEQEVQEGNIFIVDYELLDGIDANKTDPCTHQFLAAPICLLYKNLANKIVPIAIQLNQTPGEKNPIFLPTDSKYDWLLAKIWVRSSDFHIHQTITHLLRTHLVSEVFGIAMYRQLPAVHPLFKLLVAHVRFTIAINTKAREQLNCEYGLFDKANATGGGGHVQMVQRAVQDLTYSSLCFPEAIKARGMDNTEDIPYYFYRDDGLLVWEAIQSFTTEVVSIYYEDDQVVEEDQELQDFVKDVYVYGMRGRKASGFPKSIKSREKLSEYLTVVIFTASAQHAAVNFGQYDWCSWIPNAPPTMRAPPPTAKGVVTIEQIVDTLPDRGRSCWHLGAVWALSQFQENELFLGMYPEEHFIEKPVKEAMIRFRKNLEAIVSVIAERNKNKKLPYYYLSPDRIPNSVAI

[4] = Maximum time taken for compound to reach peak concentration in rat plasma; value ranges from 1-2 hrs; assay type: ADME, organism-based
[5] = organism: Rattus norvegicus; test: Tested for percent inhibition of dyspnea duration in hyperreactive rat model; assay type: functional
[6] = biological target: T2, Polyunsaturated fatty acid 5-lipoxygenase (Homo sapiens, UniProt P09917); test: In vitro inhibition of LTB4 biosynthesis in [Ca(2+)]-ionophore-activated human polymorphonuclear leukocytes; assay type: functional
T2 sequence (P09917 whole entry): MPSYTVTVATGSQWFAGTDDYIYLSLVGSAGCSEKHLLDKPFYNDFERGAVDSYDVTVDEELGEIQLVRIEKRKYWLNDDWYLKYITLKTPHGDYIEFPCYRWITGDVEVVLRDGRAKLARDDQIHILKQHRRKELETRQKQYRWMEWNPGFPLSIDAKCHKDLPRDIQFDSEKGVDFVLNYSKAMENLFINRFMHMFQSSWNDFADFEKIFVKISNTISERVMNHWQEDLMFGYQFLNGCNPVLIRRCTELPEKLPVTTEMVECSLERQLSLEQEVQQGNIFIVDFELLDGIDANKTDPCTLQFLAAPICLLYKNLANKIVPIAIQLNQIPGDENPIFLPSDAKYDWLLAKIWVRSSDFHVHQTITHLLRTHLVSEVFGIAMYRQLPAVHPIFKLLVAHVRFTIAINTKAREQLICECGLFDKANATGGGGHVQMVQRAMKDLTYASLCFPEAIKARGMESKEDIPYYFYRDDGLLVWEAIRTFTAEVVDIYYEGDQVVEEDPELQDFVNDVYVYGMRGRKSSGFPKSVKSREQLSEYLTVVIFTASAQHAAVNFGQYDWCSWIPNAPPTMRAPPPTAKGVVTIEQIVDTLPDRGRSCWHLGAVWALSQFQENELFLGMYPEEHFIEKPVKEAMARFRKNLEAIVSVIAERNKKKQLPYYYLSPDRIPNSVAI

[7] = tested on: Monkey; test: Changes in airway resistance after administration of 0.3 mg/kg in squirrel monkey; assay type: functional
[8] = organism: Rattus norvegicus; test: Tested for antigen-induced dyspnea in hyperreactive rat model (2 hr pretreatment); assay type: functional
[9] = tested on: Monkey; test: Changes in dynamic compliance after administration of 0.3 mg/kg in squirrel monkey (not significant); assay type: functional
[10] = biological target: T3, Arachidonate 12-lipoxygenase (Sus scrofa, UniProt P16469); test: Tested for inhibition against porcine 12-LO
T3 sequence (P16469 whole entry): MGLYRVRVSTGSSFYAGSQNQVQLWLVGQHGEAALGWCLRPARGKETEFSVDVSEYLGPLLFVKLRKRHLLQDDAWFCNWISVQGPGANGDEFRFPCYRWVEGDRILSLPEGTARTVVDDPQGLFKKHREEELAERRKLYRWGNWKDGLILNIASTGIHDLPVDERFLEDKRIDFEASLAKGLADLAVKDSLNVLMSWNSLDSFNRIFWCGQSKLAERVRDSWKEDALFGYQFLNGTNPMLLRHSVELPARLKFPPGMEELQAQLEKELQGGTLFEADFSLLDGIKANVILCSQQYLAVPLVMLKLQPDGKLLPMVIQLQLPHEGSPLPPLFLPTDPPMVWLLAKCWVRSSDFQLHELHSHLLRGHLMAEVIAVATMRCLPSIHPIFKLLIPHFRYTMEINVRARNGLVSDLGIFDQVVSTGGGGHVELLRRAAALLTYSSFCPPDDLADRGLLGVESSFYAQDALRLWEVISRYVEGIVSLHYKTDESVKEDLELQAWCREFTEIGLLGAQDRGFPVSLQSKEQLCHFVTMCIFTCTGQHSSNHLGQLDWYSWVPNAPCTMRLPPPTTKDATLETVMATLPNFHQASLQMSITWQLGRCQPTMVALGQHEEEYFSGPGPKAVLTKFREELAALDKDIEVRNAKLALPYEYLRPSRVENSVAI

[11] = Maximum time taken for compound to reach peak concentration in rat plasma; assay type: ADME, organism-based
[12] = Rate of enzyme inactivation for the compound was determined
[13] = tested on: Monkey; test: Changes in dynamic compliance after administration of 0.3 mg/kg in squirrel monkey; assay type: functional
[14] = tested on: Monkey; test: Changes in dynamic compliance after administration of 1 mg/kg in squirrel monkey; assay type: functional
[15] = organism: Homo sapiens; test: Tested for inhibition of leukotriene B4 synthesis in human PMN leukocytes at 5*10e5 cells/mL concentration; assay type: functional, cell-based
[16] = organism: Rattus norvegicus; test: Tested for ex-vivo inhibition of leukotriene B4 biosynthesis in rat whole blood; assay type: functional, organism-based
[17] = organism: Rattus norvegicus; test: Tested for inhibition of leukotriene B4 in rat pleurisy model (8 hours pretreatment); assay type: functional
[18] = biological target: T1, Polyunsaturated fatty acid 5-lipoxygenase; test: Tested for inhibition of 5-HPETE production by rat 5-LO; value ranges from 16-36 nM
[19] = organism: Rattus norvegicus; test: Tested for antigen-induced dyspnea in hyperreactive rat model (2 hours pretreatment); assay type: functional
[20] = biological target: Prostaglandin G/H synthase (cyclooxygenase) (Ovis aries) (UniProt P05979+P79208); test: Tested for inhibition against ram seminal vesicle Prostaglandin G/H synthase at a concentration of 10 uM; assay type: tissue-based
Sequence of Prostaglandin G/H synthase (cyclooxygenase) (Ovis aries) (P05979 whole entry, looked up): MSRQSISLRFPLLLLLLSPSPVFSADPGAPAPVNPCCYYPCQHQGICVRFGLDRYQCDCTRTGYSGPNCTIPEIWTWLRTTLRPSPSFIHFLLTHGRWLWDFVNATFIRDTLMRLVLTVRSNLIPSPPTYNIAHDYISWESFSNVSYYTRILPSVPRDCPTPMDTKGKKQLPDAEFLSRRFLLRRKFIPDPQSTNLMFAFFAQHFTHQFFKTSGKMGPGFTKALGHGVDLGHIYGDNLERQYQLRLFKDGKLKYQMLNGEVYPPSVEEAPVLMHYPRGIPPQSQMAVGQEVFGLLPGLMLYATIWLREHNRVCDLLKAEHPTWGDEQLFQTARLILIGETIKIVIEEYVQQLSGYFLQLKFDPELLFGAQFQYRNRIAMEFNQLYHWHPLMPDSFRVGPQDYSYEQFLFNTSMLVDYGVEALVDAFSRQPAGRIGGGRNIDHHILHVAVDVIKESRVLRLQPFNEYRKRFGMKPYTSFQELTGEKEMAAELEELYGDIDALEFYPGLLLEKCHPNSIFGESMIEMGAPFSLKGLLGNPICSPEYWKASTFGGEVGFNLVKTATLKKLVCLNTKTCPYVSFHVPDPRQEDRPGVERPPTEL
Sequence of Prostaglandin G/H synthase (cyclooxygenase) (Ovis aries) (P79208 whole entry, looked up): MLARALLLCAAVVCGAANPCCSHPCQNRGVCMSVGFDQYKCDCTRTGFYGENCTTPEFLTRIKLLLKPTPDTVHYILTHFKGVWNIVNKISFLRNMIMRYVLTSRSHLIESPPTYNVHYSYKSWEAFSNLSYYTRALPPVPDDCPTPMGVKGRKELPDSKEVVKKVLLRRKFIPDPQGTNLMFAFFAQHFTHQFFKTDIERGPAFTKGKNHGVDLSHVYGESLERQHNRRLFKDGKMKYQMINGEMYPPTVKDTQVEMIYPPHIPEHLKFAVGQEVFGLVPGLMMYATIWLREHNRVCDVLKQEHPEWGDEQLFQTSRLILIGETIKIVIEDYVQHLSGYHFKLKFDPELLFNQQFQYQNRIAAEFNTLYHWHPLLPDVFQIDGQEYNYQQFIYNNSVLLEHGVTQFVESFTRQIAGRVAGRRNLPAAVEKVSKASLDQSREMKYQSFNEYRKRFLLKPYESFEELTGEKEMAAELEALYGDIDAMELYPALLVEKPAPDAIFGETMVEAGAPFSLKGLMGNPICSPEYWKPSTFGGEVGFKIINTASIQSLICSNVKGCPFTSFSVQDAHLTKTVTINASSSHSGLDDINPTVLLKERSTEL

[21] = biological target: T2, Polyunsaturated fatty acid 5-lipoxygenase; test: Tested for inhibition of 5-HPETE production by human 5-LO
[22] = tested on: Monkey; test: Changes in airway resistance after administration of 1 mg/kg in squirrel monkey; assay type: functional

bioavailability [1]: 36%
Cmax [2]: 8 µM
IC50 [3]: 16 nM
Tmax [4]: 1 h
IC50 [6]: 3 nM
SMILES: CC1Cc2c(CCc3ccc(-c4ccccc4)cn3)ccc3c2c(c(CC(C)(C)Cc2nnn[nH]2)n3Cc2ccc(Cl)cc2)S1 (stereo not drawn)
Inhibition [5]: 37%

SMILES: CC(C)(C)Sc1c(CC(C)(C)C(=O)O)n(Cc2ccc(Cl)cc2)c2ccc(OCc3ccc4ccccc4n3)cc12 [QUIFLAPON]
RL [7]: 44%
ED50 [8]: 0.16 mg/kg
Cdyn [9]: 46%

IC50 [10]: 2800 nM
Tmax [11]: 6 h
bioavailability [1]: 40%
Cmax [2]: 10 µM
kinact [12]: 0.009 s⁻¹
IC50 [3]: 17 nM
IC50 [15]: 10 nM
IC50 [16]: 1500 nM
IC50 [18]: 16 nM
inhibition [20]: 59%
IC50 [21]: 75 nM
IC50 [6]: 8 nM
SMILES: CC1Cc2c(OCc3ccc(-c4ccccc4)cn3)ccc3c2c(c(CC(C)(C)Cc2nnn[nH]2)n3Cc2ccc(Cl)cc2)S1 (stereo not drawn)
RL [7]: 17.5%
Cdyn [13]: -11.2%
Cdyn [14]: -9.2%
ED50 [17]: 1.9 mg/kg
ED50 [19]: 0.1 mg/kg
Inhibition [5]: 70%
RL [22]: 12.6%

— ChEMBL document CHEMBL1126955, “Substituted thiopyrano[2,3,4-c,d]indoles as potent, selective, and orally active inhibitors of 5-lipoxygenase. Synthesis and biological evaluation of L-691,816” (J Med Chem, 1993)
